In patent US6516214B1, “Detection of stroke events using diffuse optical tomography” (The General Hospital Corporation, priority 2000, dated 2003):

Assay: Monitoring cerebral blood flow in an adult human by DOT after an indocyanine green bolus
Format: in vivo
Text: A 100 mW, 808 nm laser diode coupled to a 1 mm diameter fused silica fiber was used to deliver light to an adult human head. Four diode detectors were coupled to the scalp via 3 mm diameter plastic fibers. The collecting fibers were positioned 1, 2, 3, and 4 cm from the emitting fiber. These four separations were chosen to discriminate between scalp signals and […]. Measurements made at 1 and 2 cm separations were sensitive to changes in the optical properties of only the skull and scalp. On the other hand, measurements made at 3 and 4 cm separations were sensitive to changes in the optical properties of the brain, skull, and scalp. The remitted intensity at the four positions was sampled at 4 Hz. Baseline data was collected for 10 seconds, followed by the bolus injection. The bolus consisted of a 2 ml saline solution of 40 mg of indocyanine green injected into a vein in the arm of the volunteer. This injection was immediately followed by a 10 ml saline flush.
The data is summarized in the graph of FIG. 15, showing the attenuation of the optical signal caused by passing of the bolus of indocyanine green through the brain of the adult human volunteer. […] The small increases in each signal at about 34 seconds resulted from the re-circulation of the indocyanine green bolus.

CC1(C)C(/C=C/C=C/C=C/C=C2\N(CCCCS(=O)(=O)O)c3ccc4ccccc4c3C2(C)C)=[N+](CCCCS(=O)(=O)[O-])c2ccc3ccccc3c21 [indocyanine green]
delay of the drop in the signals relative to 3 and 4 cm separations (1 and 2 cm optode separations (scalp and skull only)): about 2 seconds
time following injection of the dye bolus at which the signal dropped significantly (3 and 4 cm optode separations, 40 mg in 2 ml saline i.v. in the arm, 808 nm): 20 s
time of small signal increases from re-circulation of the bolus (each signal, all separations): about 34 seconds
concentration of second passage bolus, times smaller than the first passage bolus (re-circulation): about 10 times
